Experimental data from PMC6539495, “Anti-Cancer Activity of Novel Dihydrotestosterone-Derived Ring A-Condensed Pyrazoles on Androgen Non-Responsive Prostate Cancer Cell Lines” (International Journal of Molecular Sciences, 2019).

What was measured:
MRC-5 cells [1] = experiment: MTT cell viability assay on non-cancerous MRC-5 fibroblasts; format: cell-based; conditions: 72 hours, MTT
HeLa cells = experiment: MTT cell viability assay on HeLa cervical cancer cells; format: cell-based, human; conditions: 72 hours
MCF-7 cells = experiment: MTT cell viability assay on MCF-7 breast cancer cells; format: cell-based, human; conditions: 72 hours
MDA-MB-231 cells = experiment: MTT cell viability assay on MDA-MB-231 breast cancer cells; format: cell-based, human; conditions: 72 hours
DU 145 cells [2] = experiment: MTT cell viability assay on DU 145 prostate cancer cells; format: cell-based, human; conditions: 72 hours
PC-3 cells [3] = experiment: MTT cell viability assay on PC-3 prostate cancer cells; format: cell-based, human; conditions: 72 hours, MTT
[4] = Solubility in DMSO for pharmacological studies; format: physicochemical; conditions: final concentration of 5 mM
Procedure: To perform pharmacological studies, the synthesized DHT derivatives were dissolved in DMSO (dimethyl sulfoxide) in a final concentration of 5 mM. One compound (5h) was non-soluble in the applied solvent, thus was excluded from the pharmacological evaluations. […] For this, PC-3 and DU 145 prostate cancer cells, MCF-7 and MDA-MB-231 breast cancer cells, HeLa cervical cancer cells and non-cancerous MRC-5 fibroblasts were used. […] On the heat map representing viability results following treatments with DHT derivatives at 30 µM concentration a remarkable structure–function relationship can be recognized (Figure 3).

MRC-5 cells [5] = system: MRC-5 cells; set-up: method as in PMID 28595942; conditions: assessed previously; cited from earlier work
PC-3 cells [6] = experiment: Annexin V/PI apoptosis detection assay (flow cytometry); format: cell-based, human; conditions: PC-3, 200 µM cisplatin, 48 h
Procedure: PC-3 cells were seeded at 2 × 10^6 cells/well density in 6-well plates. On the following day cells were treated with 5 µM of either compound 4e or 4j or with 200 µM of cisplatin (Accord Healthcare Ltd., Middlesex, UK). After 48-hour treatment, cells were collected and a Dead Cell Apoptosis Kit containing AnnexinV-FITC and propidium iodide (Life Technologies-Hungary, Budapest, Hungary) was used according to the manufacturer’s recommendation. Fluorescence intensities of at least 10,000 cells/sample were measured by FACSCalibur™ (BD Biosciences, Franklin Lakes, CA, USA) and data were analyzed by FlowJo V10 software (BD Biosciences, Franklin Lakes, NJ, USA). Experiments were repeated three times using triplicates.

PC-3 cells [7] = system: PC-3 cells; set-up: method as in PMID 28595942; conditions: assessed previously; cited from earlier work
[8] = system: caspase 3 mRNA in PC-3 cells; experiment: RT-qPCR of caspase 3 mRNA; format: cell-based, human; conditions: PC-3, 48 h; 4e, 4j 5 µM; cisplatin 200 µM; GAPDH reference
Procedure: (§1) PC-3 cells were seeded at 2 × 10^6 cells/well density in 6 well plates. On the following day cells were treated with 5 µM of either compound 4e or 4j or with 200 µM of cisplatin. Cells were collected 48-hours post-treatment and total cellular RNA was isolated using RNeasy® Mini Kit (QIAGEN, Hilden, Germany) according to the manufacturer’s recommendation. RNA (2 µg) was reverse transcribed (TaqMan® Reverse Transcription kit, Applied Biosystems, Foster City, CA, USA) in 50 µL total volume. PCR reactions were performed on PicoReal™ Real-time PCR (Thermo Scientific, Walthan, MA, USA) using SYBRGreen qPCR Master Mix (Thermo Scientific) with an input of 1 µL cDNA. Each primer (Table 3) was used at 200 nM concentration. Relative transcript levels were determined by the ΔΔCt analysis using GAPDH as reference gene. Experiments were repeated three times with three biological replicates.

Bax mRNA in PC-3 cells = experiment: RT-qPCR of Bax mRNA; format: cell-based, human; conditions: PC-3, 48 h; 4e, 4j 5 µM; cisplatin 200 µM; GAPDH reference
Procedure: as §1

DU 145 cells [9] = system: DU 145 cells; set-up: method as in PMID 28595942; conditions: assessed previously; cited from earlier work

## Cc1c2c(nn1-c1ccccc1)C[C@@H]1CC[C@@H]3[C@H](CC[C@]4(C)C(=O)CC[C@@H]34)[C@@]1(C)C2 [5a, 1′-Phenyl-5′-methylpyrazolo[3′,4′:3,2]-5α-androst-17-one]
MRC-5 cells [1]; 10 µM
  Mean values (%) of primary growth inhibitory screen (viability in %), MRC-5: 78.0%
MRC-5 cells [1]; 30 µM
  Mean values (%) of primary growth inhibitory screen (viability in %), MRC-5: 3.9%
HeLa cells; 10 µM
  Mean values (%) of primary growth inhibitory screen (viability in %), HeLa: 70.5%
HeLa cells; 30 µM
  Mean values (%) of primary growth inhibitory screen (viability in %), HeLa: 26.2%
other
  melting point: 247 to 250 °C
MCF-7 cells; 10 µM
  Mean values (%) of primary growth inhibitory screen (viability in %), MCF-7: 73.3%
MCF-7 cells; 30 µM
  Mean values (%) of primary growth inhibitory screen (viability in %), MCF-7: 7.5%
MDA-MB-231 cells; 10 µM
  Mean values (%) of primary growth inhibitory screen (viability in %), MDA-MB-231: 85.0%
MDA-MB-231 cells; 30 µM
  Mean values (%) of primary growth inhibitory screen (viability in %), MDA-MB-231: 15.2%
DU 145 cells [2]; 10 µM
  Mean values (%) of primary growth inhibitory screen (viability in %), DU 145: 80.1%
DU 145 cells [2]; 30 µM
  Mean values (%) of primary growth inhibitory screen (viability in %), DU 145: 4.0%
PC-3 cells [3]; 10 µM
  Mean values (%) of primary growth inhibitory screen (viability in %), PC-3: 47.7%
PC-3 cells [3]; 30 µM
  Mean values (%) of primary growth inhibitory screen (viability in %), PC-3: 7.6%

## Cc1c2c(nn1-c1ccc(Br)cc1)CC1CCC3C4CCC(=O)C4(C)CCC3C1(C)C2 (stereo not drawn) [5h, 1′-(4″-Bromophenyl)-5′-methylpyrazolo[3′,4′:3,2]-5α-androst-17-one]
[4]
  solubility in the applied solvent (DMSO): non-soluble

## N.N.[Cl][Pt][Cl] [cisplatin, reference compound]
MRC-5 cells [5]
  IC50: 237.3 ± 1.16 µM
PC-3 cells [6]
  apoptosis induction (annexin V/PI), in words: prominent apoptosis
PC-3 cells [7]
  IC50: 230.9 ± 1.37 µM
[8]
  caspase 3 mRNA expression level compared to untreated control: significantly increased
Bax mRNA in PC-3 cells
  Bax mRNA expression level compared to untreated control: significantly increased
DU 145 cells [9]
  IC50: 126.8 ± 1.18 µM
